Assay: Ex vivo biodistribution (gamma counter)
Format: in vivo, healthy male C57BL/6 mice
Conditions: Hg-197g, 2 h post administration
Procedure: For animal injection, the tracer was prepared at high molar activity. Radiolabeling of H4Tetrathiol (10^–2 M in DMSO; 40 μL for imaging, 20 μL for bioD) (or DMSO, for [^197m/gHg]HgCl2 mice) with [^197m/gHg]HgCl2 (imaging: 26.7 MBq total m + g, 62 μL; bioD: 13.04 MBq total m + g, 31 μL) was performed in a mixture of ammonium acetate buffer (1 M; pH 7; 198 μL for imaging or 149 μL for bioD) and 6 M NaOH (72 μL or 38 μL required to achieve a pH of 7.5 after addition of activity, for imaging or BioD labeling, respectively). The reaction was allowed to stand for 1 h at 37 °C and quantitative (> 99%) non-isolated percentage radiochemical yield (%RCY) was confirmed via the iTLC methods mentioned above. Further, 100 µL of the reaction was diluted with 50 µL of PBS Tween-20 (0.01 M sodium phosphate, 0.15 M NaCl, 0.05% Tween-20) for imaging mice, or 50 µL of the reaction was diluted with 100 µL of PBS Tween-20 for BioD mice. The tracers were prepared immediately before injection to avoid radiolysis and minimize the tracer loss to any surfaces due to its lipophilicity. The injected doses of each isomer, ^197mHg and ^197gHg, were quantified by measuring an aliquot of known volume of each tracer preparation via HPGe gamma spectroscopy and decay corrected for time of injection using the Eqs. (1) and (2).
The study was conducted in compliance with the guidelines set by the Canadian Council on Animal Care (CCAC) and approved by the Animal Care Committee (ACC) at the University of British Columbia (A20-0132). A total of eight healthy male C57BL/6 mice weighing approximately 30 g for group 1 and 25 g for group 2 were used in the study. The mice were divided into two experimental groups: group 1 (n = 4) received free [^197m/gHg]HgCl2, while group 2 (n = 4) received [^197m/gHg]Hg-Tetrathiol. Within each group, one mouse was allocated for imaging, while the rest were designated for ex vivo biodistribution analysis. For SPECT imaging, the designated mice were anesthetized using isoflurane via a precision vaporizer. […] Once anesthetized, each imaging mouse received an intravenous (IV) injection via the lateral tail vein of 150 μL of [^197m/gHg]HgCl2 (0.492 MBq ^197mHg + 3.171 MBq ^197gHg) or [^197m/gHg]Hg-Tetrathiol (0.899 MBq ^197mHg + 4.230 MBq ^197gHg) in PBS Tween-20 (0.01 M Na Phosphate, 0.15 M NaCl, 0.05% Tween-20).
Mice received an IV injection of [^197m/gHg]HgCl2 (0.275 MBq ^197mHg + 1.758 MBq ^197gHg, 150 μL) or [^197m/gHg]Hg-Tetrathiol (0.384 MBq ^197mHg + 1.733 MBq ^197gHg, 150 μL) (n = 3 per group) via the lateral tail vein using a Tailveiner restrainer. After the injection, the mice were returned to their experimental cages and allowed unrestricted movement. Biodistribution studies were conducted 2 h after administration. Mice were humanely euthanized with an overdose of isoflurane followed by cardiac puncture to collect blood pool activity. The organs of interest were fully extracted, cleaned of blood without rinsing, weighed, and analysed for radioactivity using a calibrated gamma counter with the 55–93 keV energy window for ^197gHg and the 110–160 keV energy window for ^197mHg (Packard Cobra II, Perkin Elmer, Waltham, MA, USA). The stomach and intestines were carefully cleaned prior to analysis to remove residual contents. For tissues and fluids that could not be fully removed (muscle, blood and bone) activity values were extrapolated based on standardised organ weights for age- and sex-matched mice tables to ensure accurate normalization (Davies and Morris [1993]; Foster et al. [2014]). The stomach and whole intestines were cleaned before analysis. The radioactivity measurements were decay corrected for time of injection using the Eqs. (1) and (2). The results are reported as the percentage of the injected activity per gram of tissue (%IA/g) and percentage of the injected activity per tissue (%IA/organ).

O=C(CC[S-])OCC(COC(=O)CC[S-])(COC(=O)CC[S-])COC(=O)CC[S-].[Hg+2] [[^197m/gHg]Hg-Tetrathiol]
Animal 1 (%IA/Organ): bladder: 0.00 %IA/Organ
Animal 1 (%IA/Organ): blood: 0.13 %IA/Organ
Animal 1 (%IA/Organ): bone: 3.25 %IA/Organ
Animal 1 (%IA/Organ): brain: 0.01 %IA/Organ
Animal 1 (%IA/Organ): feces: 0.00 %IA/Organ
Animal 1 (%IA/Organ): heart: 0.07 %IA/Organ
Animal 1 (%IA/Organ): kidneys: 1.54 %IA/Organ
Animal 1 (%IA/Organ): large intestine: 0.02 %IA/Organ
Animal 1 (%IA/Organ): liver: 110.52 %IA/Organ
Animal 1 (%IA/Organ): lungs: 0.95 %IA/Organ
Animal 1 (%IA/Organ): muscle: 0.14 %IA/Organ
Animal 1 (%IA/Organ): pancreas: 0.01 %IA/Organ
Animal 1 (%IA/Organ): small intestine: 0.03 %IA/Organ
Animal 1 (%IA/Organ): spleen: 3.22 %IA/Organ
Animal 1 (%IA/Organ): stomach: 0.02 %IA/Organ
Animal 1 (%IA/Organ): tail: 0.69 %IA/Organ
Animal 1 (%IA/Organ): urine: 0.00 %IA/Organ
Animal 1 (%IA/g) g: bladder: 0.05 %IA/g
Animal 1 (%IA/g) g: blood: 0.09 %IA/g
Animal 1 (%IA/g) g: bone: 1.72 %IA/g
Animal 1 (%IA/g) g: brain: 0.03 %IA/g
Animal 1 (%IA/g) g: feces: 0.04 %IA/g
Animal 1 (%IA/g) g: heart: 0.55 %IA/g
Animal 1 (%IA/g) g: kidneys: 4.07 %IA/g
Animal 1 (%IA/g) g: large intestine: 0.12 %IA/g
Animal 1 (%IA/g) g: liver: 85.85 %IA/g
Animal 1 (%IA/g) g: lungs: 7.12 %IA/g
Animal 1 (%IA/g) g: muscle: 0.01 %IA/g
Animal 1 (%IA/g) g: pancreas: 0.06 %IA/g
Animal 1 (%IA/g) g: small intestine: 0.14 %IA/g
Animal 1 (%IA/g) g: spleen: 44.55 %IA/g
Animal 1 (%IA/g) g: stomach: 0.16 %IA/g
Animal 1 (%IA/g) g: tail: 1.37 %IA/g
Animal 1 (%IA/g) g: urine: 0.03 %IA/g
Animal 2 (%IA/Organ): bladder: 0.00 %IA/Organ
Animal 2 (%IA/Organ): blood: 0.17 %IA/Organ
Animal 2 (%IA/Organ): bone: 2.68 %IA/Organ
Animal 2 (%IA/Organ): brain: 0.01 %IA/Organ
Animal 2 (%IA/Organ): feces: 0.00 %IA/Organ
Animal 2 (%IA/Organ): heart: 0.09 %IA/Organ
Animal 2 (%IA/Organ): kidneys: 0.82 %IA/Organ
Animal 2 (%IA/Organ): large intestine: 0.01 %IA/Organ
Animal 2 (%IA/Organ): liver: 133.87 %IA/Organ
Animal 2 (%IA/Organ): lungs: 0.87 %IA/Organ
Animal 2 (%IA/Organ): muscle: 0.22 %IA/Organ
Animal 2 (%IA/Organ): pancreas: 0.01 %IA/Organ
Animal 2 (%IA/Organ): small intestine: 0.02 %IA/Organ
Animal 2 (%IA/Organ): spleen: 4.01 %IA/Organ
Animal 2 (%IA/Organ): stomach: 0.04 %IA/Organ
Animal 2 (%IA/Organ): tail: 0.56 %IA/Organ
Animal 2 (%IA/Organ): urine: 0.00 %IA/Organ
Animal 2 (%IA/g) g: bladder: 0.04 %IA/g
Animal 2 (%IA/g) g: blood: 0.11 %IA/g
Animal 2 (%IA/g) g: bone: 1.37 %IA/g
Animal 2 (%IA/g) g: brain: 0.02 %IA/g
Animal 2 (%IA/g) g: feces: 0.05 %IA/g
Animal 2 (%IA/g) g: heart: 0.74 %IA/g
Animal 2 (%IA/g) g: kidneys: 2.02 %IA/g
Animal 2 (%IA/g) g: large intestine: 0.05 %IA/g
Animal 2 (%IA/g) g: liver: 103.98 %IA/g
Animal 2 (%IA/g) g: lungs: 6.17 %IA/g
Animal 2 (%IA/g) g: muscle: 0.02 %IA/g
Animal 2 (%IA/g) g: pancreas: 0.04 %IA/g
Animal 2 (%IA/g) g: small intestine: 0.07 %IA/g
Animal 2 (%IA/g) g: spleen: 61.57 %IA/g
Animal 2 (%IA/g) g: stomach: 0.32 %IA/g
Animal 2 (%IA/g) g: tail: 1.15 %IA/g
Animal 2 (%IA/g) g: urine: 0.03 %IA/g
Animal 3 (%IA/Organ): bladder: 0.00 %IA/Organ
Animal 3 (%IA/Organ): blood: 0.18 %IA/Organ
Animal 3 (%IA/Organ): bone: 2.26 %IA/Organ
Animal 3 (%IA/Organ): brain: 0.01 %IA/Organ
Animal 3 (%IA/Organ): feces: 0.00 %IA/Organ
Animal 3 (%IA/Organ): heart: 0.09 %IA/Organ
Animal 3 (%IA/Organ): kidneys: 1.16 %IA/Organ
Animal 3 (%IA/Organ): large intestine: 0.02 %IA/Organ
Animal 3 (%IA/Organ): liver: 131.25 %IA/Organ
Animal 3 (%IA/Organ): lungs: 1.12 %IA/Organ
Animal 3 (%IA/Organ): muscle: 0.21 %IA/Organ
Animal 3 (%IA/Organ): pancreas: 0.01 %IA/Organ
Animal 3 (%IA/Organ): small intestine: 0.02 %IA/Organ
Animal 3 (%IA/Organ): spleen: 4.84 %IA/Organ
Animal 3 (%IA/Organ): stomach: 0.09 %IA/Organ
Animal 3 (%IA/Organ): tail: 0.27 %IA/Organ
Animal 3 (%IA/Organ): urine: 0.00 %IA/Organ
Animal 3 (%IA/g) g: bladder: 0.03 %IA/g
Animal 3 (%IA/g) g: blood: 0.13 %IA/g
Animal 3 (%IA/g) g: bone: 1.20 %IA/g
Animal 3 (%IA/g) g: brain: 0.03 %IA/g
Animal 3 (%IA/g) g: feces: 0.00 %IA/g
Animal 3 (%IA/g) g: heart: 0.82 %IA/g
Animal 3 (%IA/g) g: kidneys: 3.17 %IA/g
Animal 3 (%IA/g) g: large intestine: 0.10 %IA/g
Animal 3 (%IA/g) g: liver: 159.50 %IA/g
Animal 3 (%IA/g) g: lungs: 8.45 %IA/g
Animal 3 (%IA/g) g: muscle: 0.02 %IA/g
Animal 3 (%IA/g) g: pancreas: 0.08 %IA/g
Animal 3 (%IA/g) g: small intestine: 0.09 %IA/g
Animal 3 (%IA/g) g: spleen: 77.82 %IA/g
Animal 3 (%IA/g) g: stomach: 0.89 %IA/g
Animal 3 (%IA/g) g: tail: 0.56 %IA/g
Animal 3 (%IA/g) g: urine: 0.03 %IA/g
Animal 4 (%IA/Organ): bladder: 0.00 %IA/Organ
Animal 4 (%IA/Organ): blood: 0.15 %IA/Organ
Animal 4 (%IA/Organ): bone: 2.62 %IA/Organ
Animal 4 (%IA/Organ): brain: 0.01 %IA/Organ
Animal 4 (%IA/Organ): feces: 0.00 %IA/Organ
Animal 4 (%IA/Organ): heart: 0.09 %IA/Organ
Animal 4 (%IA/Organ): kidneys: 1.00 %IA/Organ
Animal 4 (%IA/Organ): large intestine: 0.01 %IA/Organ
Animal 4 (%IA/Organ): liver: 107.31 %IA/Organ
Animal 4 (%IA/Organ): lungs: 0.93 %IA/Organ
Animal 4 (%IA/Organ): muscle: 0.20 %IA/Organ
Animal 4 (%IA/Organ): pancreas: 0.01 %IA/Organ
Animal 4 (%IA/Organ): small intestine: 0.02 %IA/Organ
Animal 4 (%IA/Organ): spleen: 4.62 %IA/Organ
Animal 4 (%IA/Organ): stomach: 0.01 %IA/Organ
Animal 4 (%IA/Organ): tail: 2.67 %IA/Organ
Animal 4 (%IA/Organ): urine: 0.00 %IA/Organ
Animal 4 (%IA/g) g: bladder: 0.07 %IA/g
Animal 4 (%IA/g) g: blood: 0.10 %IA/g
Animal 4 (%IA/g) g: bone: 1.40 %IA/g
Animal 4 (%IA/g) g: brain: 0.02 %IA/g
Animal 4 (%IA/g) g: feces: 0.01 %IA/g
